What is called IC50 is the concentration needed to halve the response being measured. For orientation: inhibition means the share of the control response that was lost under treatment.

Results on 38 compounds are retold here after patent US20080171737A1 (Wyeth, priority 2006, published 2008).

Counter-ions that a name gives are not always drawn.

The target in one test is T1, human hNET (Homo sapiens, UniProt P23975).
T1 construct: expressed in transfected cells; host or cells: MDCK-Net6 (MDCK cells stably transfected with hNET)
T1 sequence (P23975 whole entry): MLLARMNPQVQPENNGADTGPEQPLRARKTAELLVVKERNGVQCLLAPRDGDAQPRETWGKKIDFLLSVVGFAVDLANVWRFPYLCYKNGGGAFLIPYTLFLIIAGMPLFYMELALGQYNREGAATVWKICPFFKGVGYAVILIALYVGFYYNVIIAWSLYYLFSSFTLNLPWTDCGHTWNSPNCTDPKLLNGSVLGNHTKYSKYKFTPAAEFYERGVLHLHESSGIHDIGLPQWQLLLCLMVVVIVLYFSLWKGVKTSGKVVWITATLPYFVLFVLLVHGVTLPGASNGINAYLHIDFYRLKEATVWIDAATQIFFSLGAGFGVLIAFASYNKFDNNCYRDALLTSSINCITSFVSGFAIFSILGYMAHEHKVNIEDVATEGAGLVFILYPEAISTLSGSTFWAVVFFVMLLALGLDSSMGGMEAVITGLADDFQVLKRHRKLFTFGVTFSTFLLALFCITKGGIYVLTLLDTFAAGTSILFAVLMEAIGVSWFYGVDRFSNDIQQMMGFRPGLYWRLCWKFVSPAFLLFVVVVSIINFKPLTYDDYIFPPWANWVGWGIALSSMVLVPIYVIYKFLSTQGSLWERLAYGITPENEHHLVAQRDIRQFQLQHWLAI
The experiment in a line: Functional norepinephrine reuptake assay, Procedure B (6,000 cells/well). It counts as cell-based.
Conditions: not given
How it is done: For screening, 25 μl aliquots of compound solution at a 1 μM or 10 μM final concentration was delivered directly to cells.
For IC50 determinations, stock compounds were prepared at 10 mM from powder. The stock solution was diluted according to compound testing range. […] On the day of assay, 25 μl of compound solution at the specified concentrations were added to the plates containing cells. A DMSO stock of desipramine was prepared at 10 mM in DMSO and diluted for a final concentration of 20 μM to determine the non-specific reuptake.
MDCK-Net6 cells, stably transfected with human hNET (Pacholczyk, 1991), were maintained in growth media [high glucose DMEM (Gibco Cat. 11995), 10% FBS (dialyzed, heat-inactivated, Sigma, dialysed, heat inactivated, Lot# K0922 or equivalent) 1xPen/Strep, and 500 μg/ml G418 (Gibco Cat. 10131)]. Cells were plated at 300,000/T75 flask and cells split twice weekly.
Cells were plated at 50,000 cells/well (Procedure A) or 6,000 cells/well (Procedure B) on day 1 in BD Falcon Microtest 96-well sterile cell culture plates, Optilux White/Clear Bottom TC plate (VWR; # 62406-466 or equivalent) in growth media and maintained in a cell incubator (37° C., 5% CO2). On Day 2, cells were removed from the cell incubator and the growth media is replaced by 200 μl of assay buffer (25 mm HEPES 120 mM NaCL; 5 mM KCl; 2.5 mM CaCl2; 1.2 mM MgSO4; 2 mg/ml glucose (pH 7.4, 37° C.)) containing 0.2 mg/ml ascorbic acid and 1 μM parglyine. For screening, 25 μl of compound in 4% DMSO was added directly to each well and the plate was incubated for 5 minutes (37° C.). […] The reaction is aspirated from the plate and the cells washed with 250 μl of 50 mM Tris Buffer (4° C.). The plates were left to dry for 1 hour. The cells were lysed using 0.25 M NaOH solution then placed on a shake table and vigorously shaken for 10 minutes. After cell lysis, 100 μl of Microscint 20 (PerkinElmer; #87-051101) was added to the plates and the plates were sealed with film tape and replaced on the shake table for a minimum of 10 minutes. The plates were counted in a TopCount counter (PerkinElmer).
% inhibition=[1−((mean cpm test compound wells−mean cpm non-specific wells)/(mean cpm control wells−mean cpm non-specific wells))]×100
For IC50 determination, raw cpm values were generated in a data file from the TopCount counter. The data was organized using the Microsoft Excel and transferred into PRIZM graphing and statistical program, which calculated the estimated IC50 value. Calculation of IC50 values was made using non-linear regression analysis with a sigmoidal dose response with variable slope. The statistical program used wells containing ^3H norepinephrine only as the maximal NE reuptake determinant and wells containing ^3H norepinephrine plus 20 μM desipramine (AHR-9543) as the minimal NE reuptake determinant (non-specific determinant). Estimation of the IC50 value was completed on a log scale and the line was fit between the maximal and minimal NE reuptake values.
The compound `CNCCC[C@H]1Cc2cc(F)ccc2N(c2ccccc2F)S1(=O)=O` (single isomer, unassigned) [Example 109] returned an IC50 of 93 nM.

Regarding `CNCCC[C@H]1Cc2cc(F)ccc2N(c2c(F)cccc2F)S1(=O)=O` (single isomer, unassigned) [Example 155], the IC50 is 25 nM.

Still in this test, the particulars now being: MDCK-Net6 cells, 6,000 cells/well, 16 nM 3H-norepinephrine; read-out: Procedure B hNET uptake IC50.
In the case of `CNCCN(C)CC1Oc2ccccc2N(c2ccccc2)S1(=O)=O` (centres unmarked) [Example 139, N-[(2,2-dioxido-1-phenyl-1H-4,2,1-benzoxathiazin-3-yl)methyl]-N,N′-dimethylethane-1,2-diamine], the IC50 came out at 644 nM.

Take `CNCCC[C@H]1Cc2cc(F)ccc2N(c2ccccc2Cl)S1(=O)=O` (single isomer, unassigned) [Example 158]: the IC50 is 145 nM.

Take `CNCCCC1Cc2ccccc2N(c2ccccc2F)S1(=O)=O` (centres unmarked) [Example 89, 3-[1-(2-fluorophenyl)-2,2-dioxido-3,4-dihydro-1H-2,1-benzothiazin-3-yl]-N-methylpropan-1-amine]: the IC50 was determined as 18 nM.

As for `CNCCC1Oc2ccccc2N(c2ccccc2)S1(=O)=O` (centres unmarked) [Example 25, 2-(2,2-dioxido-1-phenyl-1H-4,2,1-benzoxathiazin-3-yl)-N-methylethanamine], the IC50 is 162 nM.

As for `CNCCCC1Oc2c(F)cccc2N(c2ccccc2)S1(=O)=O` (centres unmarked) [Example 47, 3-(5-fluoro-2,2-dioxido-1-phenyl-1H-4,2,1-benzoxathiazin-3-yl)-N-methylpropan-1-amine], the IC50 came out at 431 nM.

Regarding `CNCCCC1Cc2ccccc2N(c2ccccn2)S1(=O)=O` (racemic) [Example 126, 3-(2,2-dioxido-1-pyridin-2-yl-3,4-dihydro-1H-2,1-benzothiazin-3-yl)-N-methylpropan-1-amine], the IC50 was determined as 98 nM.

`CNCCCC1Oc2ccccc2N(c2ccc(F)cc2)S1(=O)=O` (centres unmarked) [Example 15, 3-[1-(4-fluorophenyl)-2,2-dioxido-1H-4,2,1-benzoxathiazin-3-yl]-N-methylpropan-1-amine]: the IC50 came out at 492 nM.

As to `CNCCC[C@@H]1Cc2cc(F)ccc2N(c2cccc(F)c2F)S1(=O)=O` (single isomer, unassigned) [Example 147], the IC50 is 34 nM.

In the case of `CNCCC[C@@H]1Oc2ccccc2N(c2ccccc2)S1(=O)=O` (single isomer, unassigned) [Example 14], the IC50 amounted to 23.9 nM.

In the case of `CNCCC[C@@H]1Cc2cc(F)ccc2N(c2ccccc2C#N)S1(=O)=O` (single isomer, unassigned) [Example 165], the IC50 amounted to 206 nM.

As for `CNCC[C@@H]1Oc2cc(F)ccc2N(c2ccccc2)S1(=O)=O` (single isomer, unassigned) [Example 119], the IC50 is 494 nM.

In the case of `CNCCC[C@@H]1Cc2ccccc2N(c2ccccc2F)S1(=O)=O` (single isomer, unassigned) [Example 75], the IC50 came to 3.7 nM.

On to `CNCCC[C@@H]1Cc2cc(F)ccc2N(c2ccc(F)cc2C)S1(=O)=O` (single isomer, unassigned) [Example 171], for which the IC50 amounted to 322 nM.

On to `CNCCC[C@H]1Cc2ccccc2N(c2ccccc2F)S1(=O)=O` (single isomer, unassigned) [Example 74, Hydrochloride], for which the 50% inhibitory concentration (IC50) turned out to be 58.5 nM.

`O=S1(=O)C(CCN2CCCC2)Oc2ccccc2N1c1ccccc1` (centres unmarked) [Example 29, 1-phenyl-3-(2-pyrrolidin-1-ylethyl)-1H-4,2,1-benzoxathiazine 2,2-dioxide]: the IC50 worked out at 1640 nM.

For `CNCCCC1Oc2cc(C)ccc2N(c2ccccc2)S1(=O)=O` (centres unmarked) [Example 51, N-methyl-3-(6-methyl-2,2-dioxido-1-phenyl-1H-4,2,1-benzoxathiazin-3-yl)propan-1-amine], the IC50 is 249 nM.

`CNCCCC1Cc2cc(F)ccc2N(c2ccccc2F)S1(=O)=O` (centres unmarked) [Example 108, 3-[6-fluoro-1-(2-fluorophenyl)-2,2-dioxido-3,4-dihydro-1H-2,1-benzothiazin-3-yl]-N-methylpropan-1-amine]: the IC50 was found to be 24 nM.

Regarding `CCCNCCCC1Oc2ccccc2N(c2ccccc2)S1(=O)=O` (centres unmarked) [Example 35, 3-(2,2-dioxido-1-phenyl-1H-4,2,1-benzoxathiazin-3-yl)-N-propylpropan-1-amine], the IC50 amounted to 5100 nM.

`CNCCCC1Cc2ccccc2N(c2c(F)cccc2F)S1(=O)=O` (racemic) [Example 120, 3-[1-(2,6-difluorophenyl)-2,2-dioxido-3,4-dihydro-1H-2,1-benzothiazin-3-yl]-N-methylpropan-1-amine]: the IC50 was 10 nM.

Consider `CNCCC[C@H]1Cc2cc(F)ccc2N(c2ccccc2C#N)S1(=O)=O` (single isomer, unassigned) [Example 164], for which the concentration for half-maximal inhibition (IC50) came out at 288 nM.

For the compound `CNCCC[C@H]1Cc2ccccc2N(c2ccccc2F)S1(=O)=O` (single isomer, unassigned) [Example 90], the IC50 was 59 nM.

With `CNCCC[C@@H]1Cc2ccccc2N(c2ccccn2)S1(=O)=O` (single isomer, unassigned) [Example 128], the IC50 stood at 89 nM.

With `CNCCCC1Oc2ccccc2N(c2ccccc2F)S1(=O)=O` (centres unmarked) [Example 92], the IC50 turned out to be 19 nM.

Consider `CNCCCC1Cc2cc(F)ccc2N(c2ccccc2OC)S1(=O)=O` (racemic) [Example 166, 3-[6-fluoro-1-(2-methoxyphenyl)-2,2-dioxido-3,4-dihydro-1H-2,1-benzothiazin-3-yl]-N-methylpropan-1-amine], for which the IC50 stood at 304 nM.

As for `CCCNCCC1Oc2ccccc2N(c2ccccc2)S1(=O)=O` (centres unmarked) [Example 27, N-[2-(2,2-dioxido-1-phenyl-1H-4,2,1-benzoxathiazin-3-yl)ethyl]propan-1-amine], the IC50 was 4410 nM.

`CNCC[C@H]1Oc2cc(F)ccc2N(c2ccccc2)S1(=O)=O` (single isomer, unassigned) [Example 118]: the IC50 was found to be 143 nM.

As for `CNCCC[C@H]1Oc2ccccc2N(c2ccccc2)S1(=O)=O` (single isomer, unassigned) [Example 13], the IC50 worked out at 38.7 nM.

In the case of `CNCCCC1Cc2cc(F)ccc2N(c2ccccc2Cl)S1(=O)=O` (racemic) [Example 157, 3-[1-(2-chlorophenyl)-6-fluoro-2,2-dioxido-3,4-dihydro-1H-2,1-benzothiazin-3-yl]-N-methylpropan-1-amine], the IC50 amounted to 128 nM.

In the case of `CNCCC[C@H]1Oc2cc(F)ccc2N(c2ccccc2F)S1(=O)=O` (single isomer, unassigned) [Example 131, Hydrochloride], the IC50 is 31 nM.

`CNCC[C@H](O)[C@H]1Cc2ccccc2N(c2ccccc2)S1(=O)=O` (single isomer, unassigned) [Example 117]: the IC50 is 79 nM.

As for `CNCCC[C@H]1Cc2cc(F)ccc2N(c2ccc(F)cc2C)S1(=O)=O` (single isomer, unassigned) [Example 170], the IC50 came out at 343 nM.

As to `CNCCCC1Oc2cccc(C)c2N(c2ccccc2)S1(=O)=O` (centres unmarked) [Example 49, N-methyl-3-(8-methyl-2,2-dioxido-1-phenyl-1H-4,2,1-benzoxathiazin-3-yl)propan-1-amine], the half-maximal inhibitory concentration (IC50) was 900 nM.

The test is the same for the next values; noted with them: MDCK-Net6 cells, 6,000 cells/well; Conc 6000 nM (6 μM); read-out: Procedure B hNET uptake (% inhibition).
In the case of `CCN(C)CCCC1Oc2ccccc2N(c2ccccc2)S1(=O)=O` (centres unmarked) [Example 81, 3-(2,2-dioxido-1-phenyl-1H-4,2,1-benzoxathiazin-3-yl)-N-ethyl-N-methylpropan-1-amine hydrochloride], the inhibition at 6 µM was determined as 27%.

Consider `CN1CCN(CC2Oc3ccccc3N(c3ccccc3)S2(=O)=O)CC1` (centres unmarked) [Example 141, 3-[(4-methylpiperazin-1-yl)methyl]-1-phenyl-1H-4,2,1-benzoxathiazine 2,2-dioxide], for which the inhibition at 6 µM was 30%.

Regarding `O=S1(=O)C(CCCNC2CCCCC2)Oc2ccccc2N1c1ccccc1` (centres unmarked) [Example 43, N-[3-(2,2-dioxido-1-phenyl-1H-4,2,1-benzoxathiazin-3-yl)propyl]cyclohexanamine], the inhibition at 6 µM amounted to 67%.

For the compound `CC(C)NCCCC1Oc2ccccc2N(c2ccccc2)S1(=O)=O` (centres unmarked) [Example 37, 3-(2,2-dioxido-1-phenyl-1H-4,2,1-benzoxathiazin-3-yl)-N-isopropylpropan-1-amine], the inhibition at 6 µM stood at 15%.
